Assay results published in patent publication US20250327110A1, “HIGH THROUGHPUT MULTIPLEXED SERUM BASED BACTERICIDAL ASSAYS (SBAs), AND KITS FOR USE THEREIN” (priority 2024, published 2025).

What was measured:
[1] = system: S. sonnei strain Moseley; assay type: cell-based, Shigella sonnei; conditions: for Antibiotic Sensitivity: strain Moseley (sonnei); for antibiotic resistance screening: strain Moseley, natural resistance
Source text: (§1) Strains 2457T (S. flexneri 2a) and SNP0006 (S. flexneri 6) were made resistant to streptomycin and nalidixic acid, respectively, by natural selection as previously described (Burton, R. L. and M. H. Nahm, “Development and validation of a fourfold multiplexed opsonization assay (MOPA4) for pneumococcal antibodies”, Clin Vaccine Immunol, 2006. 13(9): p. 1004-9). Strain J17B (S. flexneri 3a) was made kanamycin resistant by transduction with a nadC:kan fusion gene with P1 phage (Prunier, A. L., et al., “Genetic structure of the nadA and nadB antivirulence loci in Shigella spp.”, J Bacteriol, 2007. 189(17): p. 6482-6), which was obtained from a S. flexneri 2a strain (BS655) (personal communication with Dr. C. Turnbough at UAB).
(§2) To prepare working stocks for the target strains, primary stocks were streaked onto blood agar plates and incubated at 37° C./5% CO2. After overnight culture, multiple colonies were transferred to liquid culture medium (Todd-Hewitt broth with 0.5% yeast extract) and grown at 37° C. until cultures reached an OD600 of 0.5-1.4. After reaching the desired OD, glycerol was added to a final concentration of 16%, and 0.5-ml aliquots were prepared and stored at ≤−60° C. until needed. Each WS was tested to confirm the antibiotic sensitivity/resistance profile and to determine the optimal dilution of bacteria to use for the assay.
(§3) All target strains were tested individually in assay conditions for growth on plates containing antibiotics.

[2] = system: SNP0001 (flexneri 2a, parent 2457T); experiment: antibiotic sensitivity of mSBA target strain SNP0001; assay type: cell-based, Shigella flexneri; conditions: strain SNP0001 (flexneri 2a)
Source text: as §1, §2, §3

[3] = system: SNP0004 (flexneri 3a, parent J17B); experiment: antibiotic sensitivity of mSBA target strain SNP0004; assay type: cell-based, Shigella flexneri; conditions: strain SNP0004 (flexneri 3a)
Source text: as §1, §2, §3

[4] = system: SNP0006 (flexneri 6, parent CCH060); experiment: antibiotic sensitivity of mSBA target strain SNP0006; assay type: cell-based, Shigella flexneri; conditions: strain SNP0006 (flexneri 6)
Source text: as §1, §2, §3

| Compound | Antibiotic Sensitivity [1] | antibiotic resistance screening [1] | Antibiotic Sensitivity [2] | Antibiotic Sensitivity [3] | Antibiotic Sensitivity [4] |
| --- | --- | --- | --- | --- | --- |
| C[C@H]1c2cccc(O)c2C(O)=C2C(=O)[C@]3(O)C(O)=C(C(N)=O)C(=O)[C@@H](N(C)C)[C@@H]3[C@@H](O)[C@@H]21 [Dox, doxycycline] | R | naturally resistant | S | S | S |
| NC[C@H]1O[C@H](O[C@H]2[C@H](O)[C@@H](O[C@H]3O[C@H](CO)[C@@H](O)[C@H](N)[C@H]3O)[C@H](N)C[C@@H]2N)[C@H](O)[C@@H](O)[C@@H]1O [Kan, kanamycin] | S |  | S | R | S |
| CCn1cc(C(=O)O)c(=O)c2ccc(C)nc21 [NA, nalidixic acid] | S | sensitive | S | S | R |
| [H]/N=C(/N)N[C@H]1[C@H](O)[C@@H](O)[C@H](O[C@@H]2O[C@@H](C)[C@](O)(C=O)[C@H]2O[C@@H]2O[C@@H](CO)[C@H](O)[C@@H](O)[C@@H]2NC)[C@@H](N/C(N)=N\[H])[C@@H]1O [Strep, streptomycin] | S | sensitive | R | S | S |
